Experimental data: patent US20260294769A1, “ASCORBIC ACID DERIVATIVES AND COSMETIC THEREOF” (SEIWA KASEI COMPANY, LIMITED, priority 2023, published 2026)

Legend:
[1] = Stability Test-2: residual rate in cream of pH 7 or 9 stored at 50° C.; format: physicochemical
Method in brief: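 Each test sample was formulated into a cream adjusted to pH 7 or 9: components (a) and (b) were heated and mixed separately, cooled, and then component (c) was added. The cream was held at 50° C., and the percentage of the sample compound still present (residual rate) was determined after storage.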

[2] = Stability Test-2: odor of cream stored at 50° C.; format: physicochemical; conditions: 10 panelists
Method in brief: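 Test creams were made by heating and mixing components (a) and (b), cooling, then adding component (c) to give a pH of 7 or 9. After storage at 50° C., 10 panelists scored odor: 3 almost odorless, 2 slight strange odor, 1 strong odor. Totals were graded ◯ (25 or more), Δ (16-24) or x (15 or less).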

[3] = Stability Test-2: coloration of cream stored at 50° C.; format: physicochemical; conditions: 10 panelists
Method in brief: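 Creams were made by heating and mixing parts (a) and (b), cooling, then adding part (c), adjusting pH to 7 or 9. After storage at 50° C., ten panelists scored coloration against the freshly prepared cream: 3 for almost no change, 2 for color change, 1 for strong coloration.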

[4] = system: Normal human dermal fibroblasts; test: Collagen production promoting effect (ELISA of free collagen in supernatant); format: cell-based; conditions: 10 mM or less, 48 hours, control group set to 100%, N=3
Protocol: Normal human dermal fibroblasts were prepared in D-MEM containing 5% (v/v) fetal bovine serum to a cell density of 2.5×10^4 cells/well, and then pre-incubated for 24 hours on a 96-well plate. After removing the medium, samples prepared to a predetermined concentration in D-MEM containing 5% (v/v) fetal bovine serum were added to each well and cultured for 48 hours. After the culture was completed, the amount of free collagen in the supernatant was quantified by ELISA. Measurements were performed in triplicate (N=3).
The amount of collagen produced when the sample was measured at a concentration of 10 mM or less was compared with that of the control group, and the results (% values when the control group was set to 100%) are shown in Table 17 based on the following criteria.

[5] = system: Normal human dermal fibroblasts (NHDF); test: Hyaluronic acid production promoting effect (ELISA of hyaluronic acid in supernatant); format: cell-based; conditions: 10 mM or less, 48 hours, control group set to 100%, N=3
Method in brief: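 NHDF seeded at 2.5×10^4 cells/well in D-MEM with 5% FBS, pre-incubated 24 h, then exposed to samples in serum-free D-MEM for 48 h. Supernatant hyaluronic acid measured by ELISA in triplicate, expressed as % of control (100%) at ≤10 mM sample.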

[6] = system: Normal human epidermal keratinocytes; test: Antioxidant effect: ROS production inhibition rate (DCFHDA, H2O2); format: cell-based; conditions: 10 mM or less, 24 hours incubation, 0.2 mM H2O2, N=4
Protocol: Normal human epidermal keratinocytes were seeded onto a 96-well plate using KG2 medium at a cell density of 2.0×10^4 cells/well. After 24 hours of pre-incubation, samples adjusted to a predetermined concentration in KG2 medium were added to each well. After 24 hours of incubation, the medium was removed, followed by washing with HBSS(−) and the incorporation of the ROS-reactive fluorescent probe DCFHDA for 30 minutes. The cells were again washed with HBSS(−), treated with 0.2 mM H2O2, and incubated for 2 hours. The fluorescence intensity was measured, and the amount of ROS produced per unit protein was calculated by dividing the fluorescence intensity by the amount of protein quantified by the BCA method, resulting in an analytical value of 1. Furthermore, the amount of ROS production calculated without adding the sample adjusted to a predetermined concentration using the above test method was set to analytical value 2; and the amount of ROS production calculated without adding the sample or 0.2 mM H2O2 was set to analytical value 3.
ROS production inhibition rate (%) was calculated using the following formula. The higher the ROS production inhibition rate, the greater the antioxidant effect can be evaluated to be.
The ROS production inhibition rate when the sample was measured at a concentration of 10 mM or less was evaluated as follows. Note that the measurement was performed in N=4.

[7] = cream pH 7, 50° C., after 2 weeks, 20160 min
[8] = cream pH 7, 50° C., after 4 weeks, 40320 min
[9] = cream pH 9, 50° C., after 2 weeks, 20160 min
[10] = cream pH 9, 50° C., after 4 weeks, 40320 min

SMILES | Residual Rate [1, 7] | Residual Rate [1, 8] | Residual Rate [1, 9] | Residual Rate [1, 10] | Odor ([2]; after 4 weeks) | Odor ([2]; after 2 weeks) | Coloration ([3]; after 2 weeks) | Coloration ([3]; after 4 weeks) | Collagen production-promoting effect [4] | Hyaluronic acid production-promoting effect [5] | Antioxidant effect (ROS production inhibition rate) [6]
CCCC(=O)OCC(OC(=O)CCC)C1OC(=O)C2=C1OCCCCO2 (stereo not shown) [Synthesis Example 10, 5,6-O-dibutanoyl-2,3-O-(1,4-butanediyl) ascorbic acid] | ⊚ (95% or more) | ⊚ (95% or more) | ⊚ (95% or more) | ⊚ (95% or more) | Δ (Total score of 10 panelists is 16-24) | ◯ (Total score of 10 panelists is 25 or more) | ◯ (Total score of 10 panelists is 25 or more) | ◯ (Total score of 10 panelists is 25 or more) | ++ (140%<) | ++ (120%<) | + (<20%)
CCCCCCCC(=O)OCC(OC(=O)CCCCCCC)C1OC(=O)C2=C1OCCCO2 (stereo not shown) [Synthesis Example 23, 5,6-O-dioctanoyl-2,3-O-(1,3-propanediyl) ascorbic acid] | ⊚ (95% or more) | ⊚ (95% or more) | ⊚ (95% or more) | ⊚ (95% or more) | Δ (Total score of 10 panelists is 16-24) | ◯ (Total score of 10 panelists is 25 or more) | ◯ (Total score of 10 panelists is 25 or more) | ◯ (Total score of 10 panelists is 25 or more) | ++ (140%<) |  | + (<20%)
CCCCCCCCCCCC(=O)OCC(OC(=O)CCCCCCCCCCC)C1OC(=O)C2=C1OCCCCO2 (stereo not shown) [Synthesis Example 14, 5,6-O-dilauroyl-2,3-O-(1,4-butanediyl) ascorbic acid] | ⊚ (95% or more) | ⊚ (95% or more) | ⊚ (95% or more) | ∘ (85% or more, less than 95%) | Δ (Total score of 10 panelists is 16-24) | ◯ (Total score of 10 panelists is 25 or more) | ◯ (Total score of 10 panelists is 25 or more) | ◯ (Total score of 10 panelists is 25 or more) |  | ++ (120%<) | + (<20%)

Further lines, with some results ahead:

Residual Rate [1, 7] | Residual Rate [1, 8] | Residual Rate [1, 9] | Residual Rate [1, 10] | Odor ([2]; after 4 weeks) | SMILES | Odor ([2]; after 2 weeks) | Coloration ([3]; after 2 weeks) | Coloration ([3]; after 4 weeks) | Collagen production-promoting effect [4] | Hyaluronic acid production-promoting effect [5] | Antioxidant effect (ROS production inhibition rate) [6]
⊚ (95% or more) | ⊚ (95% or more) | ⊚ (95% or more) | ⊚ (95% or more) | Δ (Total score of 10 panelists is 16-24) | CC(C)CCCCCCCCCCCCCCC(=O)OC[C@H](O)[C@H]1OC(=O)C2=C1OCCCCO2 [Synthesis Example 17, 6-O-isostearoyl-2,3-O-(1,4-butanediyl) ascorbic acid] | ◯ (Total score of 10 panelists is 25 or more) | ◯ (Total score of 10 panelists is 25 or more) | ◯ (Total score of 10 panelists is 25 or more) | ++ (140%<) | ++ (120%<) | + (<20%)
⊚ (95% or more) | ⊚ (95% or more) | ⊚ (95% or more) | ⊚ (95% or more) | Δ (Total score of 10 panelists is 16-24) | CCCCCCCCCCCC(=O)OCC(O)C1OC(=O)C2=C1OCCCCO2 (stereo not shown) [Synthesis Example 13, 6-O-lauroyl-2,3-O-(1,4-butanediyl) ascorbic acid] | ◯ (Total score of 10 panelists is 25 or more) | ◯ (Total score of 10 panelists is 25 or more) | ◯ (Total score of 10 panelists is 25 or more) |  | ++ (120%<) | + (<20%)
